Holding throughout (test): whole plant or invertebrate
Data set [1] has as its system Haematobia irritans. The following applies: 5 μg/cm^2; for mortality at 5 µg/cm2: Haematobia irritans, read-out: Contact SP Horn Fly PCT Mortality (%). Here is the method: (§1) A solution of the test compound was used to treat a filter paper contained within a Petri dish and the filter paper was allowed to evaporate to dryness. A small piece of absorbent cotton moistened with 10% sucrose and ten adult flies (Haematobia irritans or Stomoxys calcitrans) were added to each dish. Dishes were capped and held at room temperature. Assessments were performed at 4 and 24 hours after infestation in comparison with untreated controls.

Data set [2] relates to Stomoxys calcitrans. Conditions: 5 μg/cm^2; for mortality at 5 µg/cm2: Stomoxys calcitrans, read-out: Contact SP Stable Fly PCT Mortality. Here is the method: as §1
Data set [3] deals with Rhipicephalus sanguineus (Brown Dog Tick). The following applies: for mortality at 200 ppm: Rhipicephalus sanguineus, read-out: Contact SP Rhicicep PCT Mortality (%); for Contact SP Rhicicep PCT Mortality (%): 200 ppm. The source says:
A solution of the test compound was used to coat the inner wall of glass vials and to treat two filter papers. Once dried, one filter paper was placed in the cap of the vial and the other in the bottom of the vial. Each treated vial was infested with 10 adult Rhipicephalus sanguineus (Brown Dog Tick). […]

Data set [4] relates to Ctenocephalides felis. Conditions: Dose: 200 ppm; 72 hr.

Where two headings read alike, the source gives them in different places.

Take `CC(C)CNC(=O)c1ccc(C(C)COc2cccc(OC(F)(F)F)c2)cn1` (racemic) [Compound 251]: the “Contact SP Horn Fly PCT Mortality (%)” value amounted to 80% in data set [1] (timepoint 4 hrs) and 100% in data set [1] (timepoint 24 hrs).
In the case of `CC(C)CNC(=O)c1ccc(COc2cccc(C(F)(F)F)c2)cn1` [Compound 5], the mortality (in general, the percentage killed) at 5 µg/cm2 in data set [2] (4 hrs) came to 70%; in data set [2] (24 hrs) it was 90%; in data set [1] (timepoint 4 hrs), 100%; in data set [1] (timepoint 24 hrs), 100%. Besides, the mortality at 200 ppm is 50% in data set [3] (timepoint 4 hrs) and 80% in data set [3] (timepoint 24 hrs).
In the case of `CC(C)CNC(=O)c1ccc(COc2ccc(OC(F)(F)F)cc2)cn1` [Compound 10], the mortality at 5 µg/cm2 in data set [1] (timepoint 4 hrs) and in data set [1] (timepoint 24 hrs) was 90% throughout. Moreover, the mortality at 200 ppm amounted to 0% in data set [3] (timepoint 4 hrs) and 100% in data set [3] (timepoint 24 hrs).
Regarding `CC(C)CNC(=O)c1ccc(CCOc2cccc(OC(F)(F)F)c2)cn1` [Compound 12], the mortality at 5 µg/cm2 is 50% in data set [2] (4 hrs), 90% in data set [2] (24 hrs), 80% in data set [1] (timepoint 4 hrs) and 100% in data set [1] (timepoint 24 hrs).
For the molecule `COCCCNC(=O)c1ccc(COc2ccc(OC(F)(F)F)cc2)cn1` [Compound 18], the figures for the “Contact SP Horn Fly PCT Mortality (%)” value in data set [1] (timepoint 4 hrs) and in data set [1] (timepoint 24 hrs) were 0% and 40%, respectively.
As for `O=C(NCC1CC1)c1ccc(COc2ccc(OC(F)(F)F)cc2)cn1` [Compound 33], the mortality at 5 µg/cm2 is 80% in data set [2] (4 hrs), 80% in data set [2] (24 hrs), 100% in data set [1] (timepoint 4 hrs) and 100% in data set [1] (timepoint 24 hrs). Moreover, the mortality at 200 ppm in data set [3] (timepoint 4 hrs) and in data set [3] (timepoint 24 hrs) was 100% each time.
Take `CCCNC(=O)c1ccc(COc2ccc(OC(F)(F)F)cc2)cn1` [Compound 34]: the “Contact SP Horn Fly PCT Mortality (%)” value is reported as 60% in data set [1] (timepoint 4 hrs) and 80% in data set [1] (timepoint 24 hrs).
For `C=C(C)CNC(=O)c1ccc(COc2ccc(OC(F)(F)F)cc2)cn1` [Compound 38], in that order: 50% and 80%.
For `CCCCNC(=O)c1ccc(COc2ccc(OC(F)(F)F)cc2)cn1` [Compound 40], in that order: 0% and 40%.
For the molecule `CCC(C)CNC(=O)c1ccc(COc2ccc(OC(F)(F)F)cc2)cn1` (centres unmarked) [Compound 41], the mortality at 5 µg/cm2 in data set [1] (timepoint 4 hrs) and in data set [1] (timepoint 24 hrs) was 60% in each case.
`COC(CNC(=O)c1ccc(COc2cccc(OC(F)(F)F)c2)cn1)OC` [Compound 44]: the mortality at 5 µg/cm2 in data set [1] (timepoint 4 hrs) and in data set [1] (timepoint 24 hrs) was 80% in each case. Besides, the mortality at 200 ppm in data set [3] (timepoint 4 hrs) and in data set [3] (timepoint 24 hrs) was 100% throughout.
`CSCCNC(=O)c1ccc(COc2cccc(OC(F)(F)F)c2)cn1` [Compound 49]: the mortality at 5 µg/cm2 in data set [1] (timepoint 4 hrs) is 60%; in data set [1] (timepoint 24 hrs) it was 0%.
Regarding `CC(C)NC(=O)c1ccc(COc2cccc(OC(F)(F)F)c2)cn1` [Compound 50], the “Contact SP Horn Fly PCT Mortality (%)” value turned out to be 70% in data set [1] (timepoint 4 hrs) and 80% in data set [1] (timepoint 24 hrs).
In the case of `O=C(NCC1CC1)c1ccc(COc2cccc(OC(F)(F)F)c2)cn1` [Compound 52], the “Contact SP Stable Fly PCT Mortality” value was 60% in data set [2] (4 hrs) and 80% in data set [2] (24 hrs). The “Contact SP Horn Fly PCT Mortality (%)” value in data set [1] (timepoint 4 hrs) and in data set [1] (timepoint 24 hrs) was 80% throughout.
With `C=C(C)CNC(=O)c1ccc(COc2cccc(OC(F)(F)F)c2)cn1` [Compound 53], the “Contact SP Horn Fly PCT Mortality (%)” value in data set [1] (timepoint 4 hrs) and in data set [1] (timepoint 24 hrs) was 20% each time.
With `CC(C)CNC(=O)c1ccc(COc2cccc(OC(F)(F)F)c2)cn1` [Compound 54], the mortality at 5 µg/cm2 in data set [1] (timepoint 4 hrs) and in data set [1] (timepoint 24 hrs) was 100% each time. Further, the mortality at 200 ppm in data set [3] (timepoint 4 hrs) amounted to 0%; in data set [3] (timepoint 24 hrs) it was 100%.
As for `CCC(C)CNC(=O)c1ccc(COc2cccc(OC(F)(F)F)c2)cn1` (centres unmarked) [Compound 57], the “Contact SP Horn Fly PCT Mortality (%)” value is given as 70% in data set [1] (timepoint 4 hrs) and 80% in data set [1] (timepoint 24 hrs).
Consider `Cc1cccc(OCc2ccc(C(=O)NCC3CC3)nc2)c1` [Compound 61], for which the “Contact SP Horn Fly PCT Mortality (%)” value in data set [1] (timepoint 4 hrs) and in data set [1] (timepoint 24 hrs) was 90% each time.
`Cc1cccc(OCc2ccc(C(=O)NCC(C)C)nc2)c1` [Compound 63]: the “Contact SP Stable Fly PCT Mortality” value in data set [2] (4 hrs) and in data set [2] (24 hrs) was 80% each time. Also, the “Contact SP Horn Fly PCT Mortality (%)” value in data set [1] (timepoint 4 hrs) and in data set [1] (timepoint 24 hrs) was 100% each time. The “Contact SP Rhicicep PCT Mortality (%)” value in data set [3] (timepoint 4 hrs) and in data set [3] (timepoint 24 hrs) was 100% in each case.
Regarding `CCc1cccc(OCc2ccc(C(=O)NCC(OC)OC)nc2)c1` [Compound 65], the mortality at 5 µg/cm2 in data set [2] (4 hrs) amounted to 50%; in data set [2] (24 hrs), 60%. In addition, the figures for the mortality at 200 ppm in data set [3] (timepoint 4 hrs) and in data set [3] (timepoint 24 hrs) were 80% and 100%, respectively.
Consider `CCc1cccc(OCc2ccc(C(=O)NCC3CC3)nc2)c1` [Compound 73], for which the “Contact SP Horn Fly PCT Mortality (%)” value in data set [1] (timepoint 4 hrs) and in data set [1] (timepoint 24 hrs) was 100% in each case.
As for `C=C(C)CNC(=O)c1ccc(COc2cccc(CC)c2)cn1` [Compound 76], the mortality at 5 µg/cm2 in data set [1] (timepoint 4 hrs) and in data set [1] (timepoint 24 hrs) was 0% throughout. Besides, the results for the mortality at 200 ppm in data set [3] (timepoint 4 hrs) and in data set [3] (timepoint 24 hrs) were 80% and 100%, respectively.
For `CCc1cccc(OCc2ccc(C(=O)NCC(C)C)nc2)c1` [Compound 77], the mortality at 5 µg/cm2 in data set [2] (4 hrs) amounted to 60%; in data set [2] (24 hrs), 80%; in data set [1] (timepoint 4 hrs) it was 100%; in data set [1] (timepoint 24 hrs), 100%. In addition, the mortality at 200 ppm in data set [3] (timepoint 4 hrs) and in data set [3] (timepoint 24 hrs) was 100% throughout.
Regarding `O=C(NCC1CC1)c1ccc(COc2ccc(C(F)(F)F)cc2)cn1` [Compound 95], the “Contact SP Horn Fly PCT Mortality (%)” value was determined as 50% in data set [1] (timepoint 4 hrs) and 70% in data set [1] (timepoint 24 hrs).
Turning to `N#CCCNC(=O)c1ccc(COc2cc(F)cc(Br)c2)cn1` [Compound 108], the mortality at 5 µg/cm2 in data set [2] (4 hrs) amounted to 0%; in data set [2] (24 hrs), 0%; in data set [1] (timepoint 4 hrs) it was 100%; in data set [1] (timepoint 24 hrs), 100%. Moreover, the mortality at 200 ppm in data set [3] (timepoint 4 hrs) and in data set [3] (timepoint 24 hrs) was 70% throughout.
Regarding `CSCCNC(=O)c1ccc(COc2cc(F)cc(Br)c2)cn1` [Compound 115], the “Contact SP Horn Fly PCT Mortality (%)” value turned out to be 0% in data set [1] (timepoint 4 hrs) and 60% in data set [1] (timepoint 24 hrs).
Consider `O=C(NCC1CC1)c1ccc(COc2cc(F)cc(Br)c2)cn1` [Compound 119], for which the “Contact SP Stable Fly PCT Mortality” value in data set [2] (4 hrs) was determined as 60%; in data set [2] (24 hrs), 70%. For the same molecule, the “Contact SP Horn Fly PCT Mortality (%)” value in data set [1] (timepoint 4 hrs) is 80%; in data set [1] (timepoint 24 hrs), 100%.
For the molecule `O=C(NCCc1ccccn1)c1ccc(COc2cc(F)cc(Br)c2)cn1` [Compound 121], the “Contact SP Horn Fly PCT Mortality (%)” value in data set [1] (timepoint 4 hrs) and in data set [1] (timepoint 24 hrs) was 80% throughout.
On to `O=C(NC1CCC1)c1ccc(COc2cc(F)cc(Br)c2)cn1` [Compound 122], for which the “Contact SP Horn Fly PCT Mortality (%)” value in data set [1] (timepoint 4 hrs) and in data set [1] (timepoint 24 hrs) was 0% in each case. The “Contact SP Rhicicep PCT Mortality (%)” value in data set [3] (timepoint 4 hrs) is on record as 0%; in data set [3] (timepoint 24 hrs), 80%.
Regarding `CN(C)CC(C)(C)CNC(=O)c1ccc(COc2cc(F)cc(Br)c2)cn1` [Compound 124], the mortality at 5 µg/cm2 in data set [1] (timepoint 4 hrs) and in data set [1] (timepoint 24 hrs) was 100% throughout. The mortality at 200 ppm in data set [3] (timepoint 4 hrs) and in data set [3] (timepoint 24 hrs) was 70% throughout.
As to `CC(C)CNC(=O)c1ccc(COc2cc(F)cc(Br)c2)cn1` [Compound 125], the mortality at 5 µg/cm2 in data set [1] (timepoint 4 hrs) and in data set [1] (timepoint 24 hrs) was 100% each time.
Regarding `CCCCNC(=O)c1ccc(COc2cc(F)cc(Br)c2)cn1` [Compound 127], the mortality at 5 µg/cm2 in data set [1] (timepoint 4 hrs) and in data set [1] (timepoint 24 hrs) was 70% each time. Moreover, the mortality at 200 ppm in data set [3] (timepoint 4 hrs) turned out to be 90%; in data set [3] (timepoint 24 hrs), 100%.
As to `CC(C)CCNC(=O)c1ccc(COc2cc(F)cc(Br)c2)cn1` [Compound 129], the mortality at 5 µg/cm2 in data set [1] (timepoint 4 hrs) and in data set [1] (timepoint 24 hrs) was 40% throughout.
For `CC(C)CNC(=O)c1ccc(COCc2cccc(OC(F)(F)F)c2)cn1` [Compound 132], the “Contact SP Horn Fly PCT Mortality (%)” value in data set [1] (timepoint 4 hrs) and in data set [1] (timepoint 24 hrs) was 100% in each case.
On to `CC(C)CNC(=O)c1ccc(COCc2ccc(OC(F)(F)F)cc2)cn1` [Compound 133], for which the mortality at 5 µg/cm2 in data set [1] (timepoint 4 hrs) and in data set [1] (timepoint 24 hrs) was 80% throughout.
In the case of `O=C(NCC1CC1)c1ccc(COc2cccc(-c3cccc(F)c3)c2)cn1` [Compound 176], the “Assay: Minilnge Organism: C. felis Test Parameter: PCT Mortal” value (shortened to “Assay: Minilnge Organism”) in data set [4] is on record as 70%. In addition, the “Contact SP Rhicicep PCT Mortality (%)” value in data set [3] (timepoint 4 hrs) was 90%; in data set [3] (timepoint 24 hrs) it was 100%.
Regarding `COC(CNC(=O)c1ccc(COc2cccc(-c3ccccc3)c2)cn1)OC` [Compound 185], the “Assay: Minilnge Organism” value in data set [4] came out at 90%.
Regarding `C=C(C)CNC(=O)c1ccc(COc2cccc(-c3ccccc3)c2)cn1` [Compound 197], in data set [4], the “Assay: Minilnge Organism” value is reported as 90%.
With `O=C(NCC1CC1)c1ccc(CCOc2cccc(C(F)(F)F)c2)cn1` [Compound 208], the “Contact SP Horn Fly PCT Mortality (%)” value in data set [1] (timepoint 4 hrs) and in data set [1] (timepoint 24 hrs) was 100% each time.
